The subject of assay [1] is Macrophage RAW264.7. The experiment in a line: NO production by macrophage RAW264.7 (microplate assay, griess reagent). To be noted: TAXOL 10 μg/ml. Type of assay: cell-based. Background: The Griess reaction detects nitrite, a stable product of nitric oxide.
Description: The production of NO was investigated as the following experiment
Macrophage RAW264.7(ATCC) was cultivated in RPMI-1640 medium (RPMI-1640 GibcoBRL 23400-021) 1.62%, sodium hydrogen carbonate 0.2%, penicillin and streptomycin 1%) supplemented with 10% fetal bovine serum (GibcoBRL 26140-079, FBS). Cell was incubated at 37° C., 5% CO2, and 95% of humidified air (CO2 incubator).
The production of NO was determined by employing microplate assay and the production of nitrate (NO3^−) which is an oxidized product of NO was also determined Macrophage RAW264.7(3×10^5 cells/ml) was grown in Dulbecco's modified eagle's medium supplemented with 100 U/ml penicillin, 100 μg/ml streptomycin, 10% FBS, 6 g/L HEPES, 3.7 g/L sodium hydrogen carbonate. Cell was stimulated against various control groups. Medium itself, rIFN-γ+the composite of the present invention, rIFN-γ+the composite of the present invention+LPS were stimulated to measure the production of nitrate (NO3^−) with time. After macrophage was cultured with INFγ 10 U/ml for 6 hours, the cell was incubated with each of the composite of the present invention (1 μg/ml), LPS(10 μg/ml), and the composite of the present invention (1 μg/ml)+LPS(10 μg/ml) to induce the production of nitrate (NO3^−).
The medium was centrifuged (1000 ppm, 10 minutes) and 100 μl of the culture supernatant was reacted with 100 μl of griess reagent (37.5 mM sulphanilic acid, 12.5 mM N-(1-naphthyl) ethylenediamine dihydrochloride, 6.5 mM hydrogen chloride) at room temperature for 10 minutes. Absorbance was measured at 540 nm using spectrophotometer. After correlation coefficient between concentration of NO3^− and absorbance was determined using nitric acid salts having concentration of 0 to 5 μM, the concentration of NO3^−-produced from macrophage RAW264.7 was calculated.
The nature of assay [2]: anti-oxidative activity calculated as UV blocking value. Type of assay: physicochemical. To be noted: 528 nm. How it is done: The anti-oxidative activity of the composite of this invention was measured at the wavelength of 528 nm using an UV-visible spectrometer (Cary, Virian Co., USA).
The subject of assay [3] is Macrophage RAW 264.7. The experiment in a line: TNF-α secretion of macrophage RAW 264.7 (ELISA). Type of assay: cell-based. Conditions: rIFN-γ alone, no LPS, no composite, 28 hrs.
Description: Macrophage RAW 264.7 (3×10^5 cells/well) was cultivated in RPMI-1640 medium supplemented with each of rIFN-γ, composite of this invention, and rIFN-γ+LPS, and rIFN-γ+composite of this invention for 28 hrs.
The secretion amount of TNF-α in the aforementioned cell was measured at a wavelength of 405 nm using ELISA method. Prior to analysis, several drops of 0.05% PBS (phosphate-buffered saline) was added to Tween 20 for its washing. All specimens for analysis was cultivated at 37° C. for 2 hrs. Recombinant murine TNF-α, so diluted, was used as a standard solution. An assay plate was exposed to (containing biotylate murine TNF-α, avidine peroxide, 30% H2O2), a substrate solution of ABTS (Azinobis(3-ethylbenzothiazoline-6-sulfonic acid).

These results are taken from patent US20030109490A1, “Composite stimulating iNOS enzyme which induce immuno-reactant nitric oxide synthesis and process for preparing the same” (priority 2001, published 2003).

Take `CC(=O)O[C@H]1C(=O)[C@@]2(C)[C@H]([C@H](OC(=O)c3ccccc3)[C@]3(O)C[C@H](OC(=O)[C@H](O)[C@@H](NC(=O)c4ccccc4)c4ccccc4)C(C)=C1C3(C)C)[C@]1(OC(C)=O)CO[C@@H]1C[C@@H]2O` [TAXOL ®]: the NO in assay [1] (rIFN-γ added, no LPS, 0 h) is under 4.0 µM; in assay [1] (rIFN-γ added, no LPS, 12 h), 30.56 ± 3.2 µM; in assay [1] (rIFN-γ and LPS added, 24 h) it was 45.1 ± 1.2 µM.

For the molecule `O=C1O[C@H]([C@@H](O)CO)C(O)=C1O` [Vitamin C], the “anti-oxidative activity (UV blocking value)” value was 21.23% in assay [2] (0.1% solution), 28.51% in assay [2] (0.5% solution), 47.83% in assay [2] (1% solution) and 58.28% in assay [2] (2% solution).

B1: rIFN-γ: recombinant IFN-γ used to stimulate macrophage RAW264.7 (protein, UniProt P01580 23-155, looked up)
Interferon gamma: HGTVIESLESLNNYFNSSGIDVEEKSLFLDIWRNWQKDGDMKILQSQIISFYLRLFEVLKDNQAISNNISVIESHLITTFFSNSKAKKDAFMSIAKFEVNNPQVQRQAFNELIRVVHQLLPESSLRKRKRSRC
With B1, in assay [3], the TNF-a was determined as 0.76 ± 0.02 ng/mL.
